Reference: US6531156B1, “Aqueous solven encapsulation method, apparatus and microcapsules” (Temple University, priority 1994, dated 2003)
Where two headings read alike, the source gives them in different places.

Tests used:
[1] = pH response and retention of bromphenol blue in octadecylamine carboxymethylcellulose microcapsules; type: physicochemical; details: for colour of microcapsules in acid medium: rehydrated and wet stored microcapsules
Method: Step 1: A 100 milligram sample of bromphenol blue (Fisher Scientific Co.) was dissolved in 25 milliliters of a 0.1% solution of sodium carboxymethylcellulose (medium viscosity, Ruger Chemical Co.) and the resulting solution was slowly pumped (approximately 1 milliliter per minute) through a capillary drawn to a fine tip (0.1 millimeter o.d.). The emerging droplets were allowed to fall a distance of about 1 centimeter into a slowly stirred 0.1% aqueous solution of octadecylamine (Aldrich Chemical Co.) solubilized as the acetate at pH 7.0.
Step 2: The resulting approximately 1.5 millimeter diameter microcapsules were stirred for an additional hour and separated with the aid of fine netting. The microcapsules were washed with two 100 milliliter volumes of water. About half the microcapsules were stored wet and refrigerated until used. The other half of the microcapsules were lyophilized and stored dry until used.
Step 3: A few dozen of the lyophilized microcapsules were rehydrated in a few milliliters of water for an hour and were used in parallel with the wet stored microcapsules to test their sensitivity to pH. Dilutions of hydrochloric acid were made to provide solutions with pH values of 2, 3, and 4. To these hydrochloric acid solutions, a few rehydrated and a few wet stored microcapsules were added one at a time.

[2] = system: bovine rotavirus strain WC3; details: WC3 stock diluted 1:50 in 0.05N sodium salt of polymer or 0.05M amine salt, pH 7.0, versus 0.9% NaCl
[3] = spermine alginate microcapsules, 5 water washes, absorbance after dissolving microcapsules with sodium chloride

For `O=S1(=O)OC(c2cc(Br)c(O)c(Br)c2)(c2cc(Br)c(O)c(Br)c2)c2ccccc21` [bromphenol blue], which “diffusion of encapsulated indicator out of the microcapsule” value ([1]; octadecylamine carboxymethylcellulose microcapsules, rehydrated and wet stored) is on record?
The value was “did not diffuse out of it”.

And the “colour of microcapsules in acid medium” value ([1]; pH 3 solution)?
Its value is “changed to yellow within a few minutes”.

And the “colour of microcapsules in acid medium” value ([1]; pH 4 medium)?
Its value is “remained blue”.

For `CCCCCCCCCCCCN` [dodecylamine], which “reduction in rotavirus infectivity” value [2] is on record?
Its value is “complete ablation”.

With `O=c1[nH]cc(F)c(=O)[nH]1` [fluorouracil, Fluorouracil] as the compound, how does the “initial amount of core material retained in the microcapsules during the repeated washings” value [3] read?
The value was “more than half”.

Which “reduction in rotavirus infectivity” value [2] does the source give for `CN(C)c1ccc2nc3ccc(=[N+](C)C)cc-3sc2c1` [methylene blue] here?
Its value is “Essentially no effect”.

Which “reduction in rotavirus infectivity” value [2] does the source give for `C1CNCCN1` [piperazine] here?
The value was 30 fold.

With `NCCCNCCCCNCCCN` [spermine] as the compound, how does the “reduction in rotavirus infectivity” value [2] read?
Its value is “Essentially no effect”.

And the “reduction in rotavirus infectivity” value ([2]; listed as spermine hydrochloride)?
The value was “neither sodium alginate nor spermine hydrochloride reduced rotavirus infectivity”.
